From US8299060B2, “Trans-4-[[(5S)-5-[[[3,5-bis(trifluoromethyl)phenyl]methyl] (2-methyl-2H-tetrazol-5-yl)amino]-2,3,4,5-tetrahydro-7,9-dimethyl-1H-1-benzazepin-1-yl]methyl]-cyclohexanecarboxylic acid” (Eli Lilly and Company, priority 2009, dated 2012)
Marks after values point to notes of the source that are not given here.

Experiments:
[1] = Chemical stability: acid stability in 0.1N HCl at 40° C.; type: physicochemical
Experimental: Table 6 below lists the chemical stability of BCCA free acid as well as that of selected Examples 31, 89, 153, and 175 disclosed in WO 06/002342, renumbered below as compounds 13, 14, 15, and 16, respectively. […] This increased acid stability for BCCA free acid is not taught and cannot be predicted considering WO 06/002342.
Sample preparations: 1) Compound Stock: 0.9 mg/mL in ACN; 2) 100 μL stock+700 μL ACN+1 mL media (0.1N HCl, 50 mM PO4, pH 8, and 0.3% H2O2); 3) Place vials in heated (40° C.) autosampler, inject at 4 hour intervals for 16 or 24 hours.
Column: Alltech Alltima Phenyl, 3 μm, 4.6×150 mm or Waters XTerra MS C18, 3.5 μm, 4.6×150 mm Column temperature: 50° C., Injection volume: 10 μL. Detection: UV @ 226, 254 or 266 nm (depending on compound) Flow rate: 1.5 mL/min. Mobile phase: 0.1% TFA in 50% water/50% ACN (may need to adjust % ACN to keep compound peak retention time ˜5 min.) final sample conc. 0.05 mg/mL; ACN content 44%.

[2] = IV and PO pharmacokinetics in male Sprague Dawley rats; type: in vivo; settings: 3 mg/kg PO; for F % (AUC Extrap.) ± sd: 1 mg/kg IV; for Cmax / Tmax: rat, plasma
Experimental: This following is to determine the pharmacokinetic parameters, including oral bioavailability, following a single 1 mg/kg intravenous bolus or a 3 mg/kg oral dose administration of the compound to male Sprague Dawley rats (n=4) in a crossover study design. The intravenous vehicle is 20% solutol microemulsion/80% deionized water. The oral vehicle is povidone USP 10%/SLS 0.5%/QS deionized water. In the intravenous arm, blood samples are collected at 0.08, 0.25, 0.5, 1, 2, 5, 8, 12, and 24 hours post-dose. In the oral arm, blood samples are collected at 0, 0.25, 0.5, 1, 2, 5, 8, 12, and 24 hours post-dose. Plasma is obtained by centrifugation, placed on ice, and frozen until samples are shipped on dry ice to Bioanalytical Systems, Inc. (BASi; West Lafayette, Ind.) for bioanalytical analysis. Concentrations of BCCA are determined by LC/MS/MS and pharmacokinetic parameters are calculated using a validated software program (Watson, Version 7.1). Other vehicles can be used to evaluate the bioavailability of BCCA including: 1% w/v sodium carboxymethyl cellulose, 0.25% w/v polysorbate 80 (Tween 80) and 0.05% 0.05% Dow Corning Antifoam 1510-US in purified water or; 1% w/v sodium carboxymethyl cellulose, 0.5% w/v sodium laurate sulfate, and 0.05% 0.05% Dow Corning Antifoam 1510-US in purified water in purified water each used either with or without sonification to facilitate dissolution of the compounds.

human CETP = target: T1, human CETP (Homo sapiens, UniProt P11597); assay: In vivo assay of CETP activity; set-up: species or system transgenic mice that express human CETP; settings: 30 mpk oral dose, 79.5% corn oil, 20% oleic acid, 0.5% Lubrafil; CETP and Apo A1 heterozygote mice; 8 hr; read-out: % CETP Inhib 8 hr
T1 construct: plasma from the treated animals is used as the CETP source in the assay; tissue Taconic; host or cells: plasma of transgenic mice expressing human CETP (CETP and Apo A1 heterozygotes)
T1 sequence (P11597 18-493): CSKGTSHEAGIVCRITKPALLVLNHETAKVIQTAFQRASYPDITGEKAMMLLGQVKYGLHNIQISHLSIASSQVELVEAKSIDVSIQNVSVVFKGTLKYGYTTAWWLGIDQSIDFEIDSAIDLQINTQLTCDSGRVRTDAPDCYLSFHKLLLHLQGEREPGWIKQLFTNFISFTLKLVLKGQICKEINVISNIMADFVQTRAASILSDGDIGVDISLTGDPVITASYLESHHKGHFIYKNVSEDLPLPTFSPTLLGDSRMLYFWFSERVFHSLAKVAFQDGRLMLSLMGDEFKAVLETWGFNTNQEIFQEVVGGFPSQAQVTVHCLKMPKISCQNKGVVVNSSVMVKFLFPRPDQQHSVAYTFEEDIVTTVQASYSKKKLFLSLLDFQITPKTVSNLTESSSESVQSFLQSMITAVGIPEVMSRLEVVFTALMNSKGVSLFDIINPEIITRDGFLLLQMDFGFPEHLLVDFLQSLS
Description: An in vitro Scintillation Proximity Assay (SPA) has been used to evaluate the ability of compounds of this invention to inhibit the transfer of radiolabeled cholesterol esters between HDL and LDL. This assay monitors the inhibition of the transfer of [^3H]cholesterol esters from HDL (Amersham) to biotinylated LDL (Amersham) by a CETP source. The CETP source for this assay can be produced by AV-12 cells that have been created to express human CETP. The radiolabeled cholesterol ester is transferred in a HEPES-NaCl based buffer, after thirty minutes incubation the reaction is stopped and the biotinylated LDL is bound to streptavidin/scintillant coated SPA beads (Amersham). The radioactive signal is measured in a Packard 96-well scintillation TopCounter with window settings fully open. A decrease in radioactive signal from the LDL relative to a standard indicates the ability of compounds to inhibit the activity of CETP.
Syrian Golden Hamsters, which express endogenous CETP, can be used to assess the activity of the compounds in vivo. […] The CETP activity can be determined by a method similar to that described above for the in vitro CETP activity assay, with the modification that plasma from the treated animals is used as the CETP source in the assay.

HDL cholesterol = assay: In vivo assay of plasma lipids (HDL cholesterol elevation); set-up: species or system transgenic mice that express human CETP; settings: 30 mpk oral dose, 79.5% corn oil, 20% oleic acid, 0.5% Lubrafil, CETP and Apo A1 heterozygote mice
Experimental: Syrian Golden Hamsters, which express endogenous CETP, can be used to assess the activity of the compounds in vivo. Test compounds are administered orally 30 mpk dose in a 79.5% corn oil, 20% oleic acid, 0.5% Lubrafil vehicle to a strain of transgenic mice that express human CETP (female or male CETP and Apo A1 heterozygote mice Taconic, Germantown, N.Y.). At various times after dosing, ranging from 4 h to 48 h, blood/plasma can be obtained. The CETP activity can be determined by a method similar to that described above for the in vitro CETP activity assay, with the modification that plasma from the treated animals is used as the CETP source in the assay.
Activity of compounds of this invention in vivo can be evaluated by comparing the level of elevation of HDL cholesterol relative to a control by a given amount of a compound in a CETP-containing animal species. The test compounds are administered as described above for the in vivo assay of CETP activity. […] The HDL cholesterol levels in the serum can be determined by known procedures using HDL-C plus reagents (Roche/Hitachi, Indianapolis, Ind.) with a clinical chemistry analyzer (Roche/Hitachi, Indianapolis, Ind.). Additional serum lipids can be analyzed by enzymatic methods. Lipids in the VLDL, LDL and HDL fractions are analyzed by enzymatic methods after precipitation or size exclusion chromatography. […]

[3] = Hygroscopicity and degradation on storage at ambient temperature; type: physicochemical; settings: stored at ambient temperature

SMILES | Acid Stability, percent remaining, 8 hrs [1] [%] | Acid Stability, percent remaining, 24 hrs [1] [%] | hygroscopicity [3] | also measured
Cc1cc(C)c2c(c1)[C@@H](N(Cc1cc(C(F)(F)F)cc(C(F)(F)F)c1)c1nnn(C)n1)CCCN2C[C@H]1CC[C@H](C(=O)O)CC1 [Ex 1, Trans-4-[[(5S)-5-[[[3,5-bis(trifluoromethyl)phenyl]methyl](2-methyl-2H-tetrazol-5-yl)amino]-2,3,4,5-tetrahydro-7,9-dimethyl-1H-1-benzazepin-1-yl]methyl]-cyclohexanecarboxylic acid] | 97.3 | 91.3 | non-hygroscopic | F % (AUC Extrap.) ± sd [2]: 38 ± 4%; Cmax [2]: 208 ± 41 ng/mL; Tmax [2]: 3.5 ± 1.7 h; inhibition at 30 mg/kg (human CETP): 98.6%; % HDL cholesterol increase at 8 hr (HDL cholesterol): 129.7. %
CC(C)(C)N.CCO.Cc1cc(C)c2c(c1)[C@@H](N(Cc1cc(C(F)(F)F)cc(C(F)(F)F)c1)c1nnn(C)n1)CCCN2C[C@H]1CC[C@H](C(=O)O)CC1.Cc1cc(C)c2c(c1)[C@@H](N(Cc1cc(C(F)(F)F)cc(C(F)(F)F)c1)c1nnn(C)n1)CCCN2C[C@H]1CC[C@H](C(=O)O)CC1 (relative stereo) [Example 15, Trans-4-[[(5S)-5-[[[3,5-bis(trifluoromethyl)phenyl]methyl](2-methyl-2H-tetrazol-5-yl)amino]-2,3,4,5-tetrahydro-7,9-dimethyl-1H-1-benzazepin-1-yl]methyl]-cyclohexanecarboxylic acid hemi tert-butylamine salt hemi ethanol (2:1:1) solvate in crystalline form] |  |  | non-hygroscopic | 
Cc1cc(C)c2c(c1)[C@@H](N(Cc1cc(C(F)(F)F)cc(C(F)(F)F)c1)c1nnn(C)n1)CCCN2C[C@H]1CC[C@H](C(=O)O)CC1.O (relative stereo) [Example 3, Trans-4-[[(5S)-5-[[[3,5-bis(trifluoromethyl)phenyl]methyl](2-methyl-2H-tetrazol-5-yl)amino]-2,3,4,5-tetrahydro-7,9-dimethyl-1H-1-benzazepin-1-yl]methyl]-cyclohexanecarboxylic acid•Hydrate] |  |  |  | degradation on storage [3]: minor or very little degradation
Cc1cc2c(cc1C(F)(F)F)N(C1CCC(C(=O)O)CC1)CCC[C@@H]2N(Cc1cc(C(F)(F)F)cc(C(F)(F)F)c1)c1nnn(C)n1 (stereo partly drawn) [Compound 16] | 37.8 |  |  | Acid Stability, percent remaining after 16 hrs ([1]; 16 hrs (footnote *)): 13.4* Percent
CC(C)(C)N.CC(C)O.Cc1cc(C)c2c(c1)[C@@H](N(Cc1cc(C(F)(F)F)cc(C(F)(F)F)c1)c1nnn(C)n1)CCCN2C[C@H]1CC[C@H](C(=O)O)CC1 (relative stereo) [Example 14, Trans-4-[[(5S)-5-[[[3,5-bis(trifluoromethyl)phenyl]methyl](2-methyl-2H-tetrazol-5-yl)amino]-2,3,4,5-tetrahydro-7,9-dimethyl-1H-1-benzazepin-1-yl]methyl]-cyclohexanecarboxylic acid tert-butylamine isopropyl alcohol (1:1:1) solvate] |  |  | non-hygroscopic | 
Cc1cc(C)c2c(c1)[C@@H](N(Cc1cc(C(F)(F)F)cc(C(F)(F)F)c1)c1nnn(C)n1)CCCN2C[C@H]1CC[C@H](C(=O)O)CC1.O (relative stereo) [Example 5, Trans-4-[[(5S)-5-[[[3,5-bis(trifluoromethyl)phenyl]methyl](2-methyl-2H-tetrazol-5-yl)amino]-2,3,4,5-tetrahydro-7,9-dimethyl-1H-1-benzazepin-1-yl]methyl]-cyclohexanecarboxylic acid hydrate in crystalline form] |  |  | non-hygroscopic | 
[O-][n+]1ccccc1[S-].[O-][n+]1ccccc1[S-].[Zn+2] [zinc salt] |  |  | essentially non-hygroscopic | 
Cc1cc2c(cc1C(F)(F)F)N(Cc1ccc(C(=O)O)cc1)CCC[C@@H]2N(Cc1cc(C(F)(F)F)cc(C(F)(F)F)c1)c1nnn(C)n1 [Compound 14, (S)-4-{5-[(3,5-Bis-trifluoromethyl-benzyl)-(2-methyl-2H-tetrazol-5-yl)-amino]-7-methyl-8-trifluoromethyl-2,3,4,5-tetrahydro-benzo[b]azepin-1-ylmethyl}-benzoic acid] | 52 | 13.4 |  | 
Cc1cc2c(c(C)c1C(F)(F)F)N(CC1CCC(CC(=O)O)CC1)CCC[C@@H]2N(Cc1cc(C(F)(F)F)cc(C(F)(F)F)c1)c1nnn(C)n1 (stereo partly drawn) [Compound 15, reference compound] | 100.4 | 99.1 |  | F % (AUC Extrap.) ± sd [2]: 8 ± 3%; Cmax [2]: 85 ± 43 ng/mL; Tmax [2]: 5 h
Cc1cc2c(cc1C(F)(F)F)N(C[C@H]1CC[C@H](CC(=O)O)CC1)CCC[C@@H]2N(Cc1cc(C(F)(F)F)cc(C(F)(F)F)c1)c1nnn(C)n1 [Compound 13, (4-{5-[(3,5-Bis-trifluoromethyl-benzyl)-(2-methyl-2H-tetrazol-5-yl)-amino]-7-methyl-8-trifluoromethyl-2,3,4,5-tetrahydro-benzo[b]azepin-1-ylmethyl}-cyclohexyl)-acetic acid] | 14.5 | 0 |  | 
